This passage reports GI50 and TGI results from PubChem BioAssay (NCI).

Among the test systems are U251 CNS; MOLT-4 leukemia; DU-145 prostate; NCI-H522 lung; COLO 205 colon; PC-3 prostate; OVCAR-3 ovarian; BT-549 breast.
Common to all, as to experiment: inhibition of tumour cell growth, NCI panel, 48 h

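Grown in 96-well plates, cells were treated for 48 hours with each compound at five concentrations. Insufficient inhibition: endpoint recorded as highest concentration tested. GI50 = concentration required for 50% inhibition of growth. Definition used: TGI = concentration required for complete inhibition of growth.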 Some results are limits rather than exact numbers.

Turning to `CCCCCCCCN=C(NCCCCCCCC)SCc1cccc2ccccc12`, the GI50 was 1.59 µM in the experiment with U251 CNS; 1.83 µM in the experiment with MOLT-4 leukemia; 1.8 µM in the experiment on DU-145 prostate; 1.38 µM with NCI-H522 lung; 1.48 µM with COLO 205 colon; 1.49 µM with PC-3 prostate. Also, in the experiment on OVCAR-3 ovarian, the GI50 was 1.72 µM. The TGI with U251 CNS worked out at 2.98 µM; in the experiment on MOLT-4 leukemia, 4.19 µM; in the experiment on DU-145 prostate, 3.29 µM; in the experiment with NCI-H522 lung it was 2.87 µM; in the experiment on COLO 205 colon it was 2.95 µM; in the experiment on PC-3 prostate it was 2.89 µM. The compound further came in with a TGI in the experiment with OVCAR-3 ovarian of 3.21 µM.

Take `CN(C)c1ccc2[nH]c3c(C(N)=O)cc(=O)c(=O)c=3oc2c1`: the GI50 in the experiment with U251 CNS was 1.8 µM; with MOLT-4 leukemia, 0.861 µM; in the experiment on DU-145 prostate it was 4.6 µM; with NCI-H522 lung, 0.687 µM; in the experiment on COLO 205 colon, 3.5 µM; in the experiment on PC-3 prostate, 2.77 µM. Also, in the experiment with OVCAR-3 ovarian, the GI50 was 0.508 µM. Moreover, the TGI is 9.8 µM in the experiment with U251 CNS; 8.53 µM in the experiment on MOLT-4 leukemia; over 100 µM in the experiment with DU-145 prostate; 8.24 µM with NCI-H522 lung; over 100 µM in the experiment on COLO 205 colon; over 100 µM in the experiment with PC-3 prostate. The same compound came in with a TGI in the experiment on OVCAR-3 ovarian of 6.85 µM.

In the case of `COc1ccc(/C=C/c2ccnc3ccccc23)cc1OC`, the TGI in the experiment on U251 CNS was over 100 µM; with MOLT-4 leukemia it was 45.1 µM; in the experiment on DU-145 prostate, 26.6 µM; in the experiment with NCI-H522 lung, 23.2 µM; with COLO 205 colon, 27.1 µM; with PC-3 prostate, 36.4 µM. The same compound gave a TGI in the experiment on OVCAR-3 ovarian of 26.6 µM.

On to `O=C1C=CC(=O)c2c1nc(CBr)[nH]c2=O`, for which the TGI in the experiment with U251 CNS, in the experiment on MOLT-4 leukemia, with DU-145 prostate, with NCI-H522 lung, in the experiment on COLO 205 colon and in the experiment on PC-3 prostate was over 100 µM throughout. Also, in the experiment on OVCAR-3 ovarian, the TGI was over 100 µM.

In the case of `CCN(CC)C(=S)SS(C)(=O)=O`, the TGI in the experiment on U251 CNS came to 31.5 µM; in the experiment on MOLT-4 leukemia it was 42.8 µM; with NCI-H522 lung, 0.137 µM; in the experiment with COLO 205 colon it was 29.7 µM.

For `CCC(c1ccccc1)c1cc(C(C)(C)C)cc(C(C)(C)C)c1O` (centres undefined), the TGI stood at 31.5 µM in the experiment on U251 CNS; 33.2 µM with DU-145 prostate; 27.2 µM in the experiment on NCI-H522 lung; 34.2 µM with COLO 205 colon; 31.6 µM in the experiment on PC-3 prostate; 27.2 µM in the experiment on OVCAR-3 ovarian. For the same compound, the TGI in the experiment on BT-549 breast worked out at 33.4 µM.

For the compound `CC12O[C@H](C[C@@H](OC(=O)CCC(=O)O)[C@H]1O)n1c3ccccc3c3c4c(c5c6ccccc6n2c5c31)C(=O)NC4=O`, the GI50 with U251 CNS is 5.71 µM; in the experiment on MOLT-4 leukemia it was 0.949 µM; in the experiment with NCI-H522 lung it was 0.602 µM; with COLO 205 colon, 0.902 µM; in the experiment on PC-3 prostate, 3.44 µM; in the experiment with OVCAR-3 ovarian, 1.32 µM. For the same compound, the GI50 in the experiment on BT-549 breast is 1.02 µM. The TGI is 17.1 µM with U251 CNS; 18 µM with MOLT-4 leukemia; 6.92 µM with NCI-H522 lung; 5.26 µM in the experiment with COLO 205 colon; over 50 µM with PC-3 prostate; 14 µM in the experiment with OVCAR-3 ovarian. In the experiment with BT-549 breast, this compound displayed a TGI of 7.68 µM.

Turning to `Cc1c(-c2ccccn2)ccc2ccccc12`, the TGI with U251 CNS, with MOLT-4 leukemia, in the experiment on DU-145 prostate, in the experiment on COLO 205 colon, in the experiment with PC-3 prostate and in the experiment on OVCAR-3 ovarian was over 100 µM throughout.

For `O=C(Oc1c(Cl)cc(Cl)cc1Cl)c1ccccc1Nc1ccnc(C(F)(F)F)c1`, the GI50 in the experiment with U251 CNS was 3.04 µM; in the experiment on NCI-H522 lung, 5.7 µM; with COLO 205 colon it was 6.24 µM; with PC-3 prostate, 15 µM; in the experiment on OVCAR-3 ovarian it was 4.3 µM; in the experiment on BT-549 breast, 2.42 µM. The TGI in the experiment with U251 CNS was 9.32 µM; in the experiment on NCI-H522 lung it was over 100 µM; with COLO 205 colon it was over 100 µM; in the experiment with PC-3 prostate it was over 100 µM; in the experiment on OVCAR-3 ovarian, over 100 µM; in the experiment on BT-549 breast it was 6.98 µM.

Take `Cc1ccc(-c2nc3sc(C)cn3c2/C=C2\C(=O)Nc3ccc(Cl)cc32)cc1`: the GI50 was 3.92 µM with U251 CNS; 26.2 µM with MOLT-4 leukemia; 15.5 µM in the experiment on NCI-H522 lung; 31 µM with COLO 205 colon; 22.3 µM with PC-3 prostate; 24.6 µM in the experiment on OVCAR-3 ovarian. In addition, the GI50 in the experiment with BT-549 breast was 15.3 µM. The TGI in the experiment on U251 CNS is 15.3 µM; in the experiment on MOLT-4 leukemia, 82.7 µM; with NCI-H522 lung it was 30.1 µM; in the experiment with COLO 205 colon it was over 100 µM; in the experiment with PC-3 prostate it was 54.4 µM; with OVCAR-3 ovarian, 62.8 µM. Moreover, the TGI with BT-549 breast came to 37.1 µM.

Turning to `Cc1cc(N(CCNc2ccnc3cc(Cl)ccc23)Cc2ccc3c(c2)OCO3)nc(N2CCCC2)n1`, the GI50 is 1.36 µM in the experiment with U251 CNS; 1.86 µM in the experiment with MOLT-4 leukemia; 1.74 µM with NCI-H522 lung; 1.53 µM in the experiment with COLO 205 colon; 2.85 µM in the experiment with PC-3 prostate; 1.74 µM in the experiment with OVCAR-3 ovarian. In the experiment on BT-549 breast, the GI50 is 1.82 µM. The TGI came to 3.21 µM in the experiment with U251 CNS; 7.03 µM in the experiment with MOLT-4 leukemia; 3.79 µM with NCI-H522 lung; 3.17 µM in the experiment with COLO 205 colon; 14 µM in the experiment with PC-3 prostate; 3.81 µM in the experiment on OVCAR-3 ovarian. In the experiment with BT-549 breast, this compound showed a TGI of 4.27 µM.

With `CSc1ccc(C(=O)/C=C/c2ccc(Cl)cc2Cl)cc1`, the GI50 in the experiment with U251 CNS is 16.9 µM; in the experiment with MOLT-4 leukemia it was 16.4 µM; in the experiment with DU-145 prostate, 25.7 µM; with NCI-H522 lung it was 14.4 µM; in the experiment with PC-3 prostate, 39.6 µM; with OVCAR-3 ovarian, 21.9 µM. For the same compound, the GI50 in the experiment on BT-549 breast is 15.7 µM. The TGI is 32 µM in the experiment with U251 CNS; 33.9 µM in the experiment with MOLT-4 leukemia; 89.2 µM in the experiment with DU-145 prostate; 37.2 µM with NCI-H522 lung; over 100 µM in the experiment with PC-3 prostate; 49.2 µM in the experiment on OVCAR-3 ovarian. Besides, in the experiment with BT-549 breast, the TGI came out at 33.1 µM.

Take `O=C1C(Cl)=C(NCCCN(CCCNC2=C(Cl)C(=O)c3ccccc3C2=O)C2=C(Cl)C(=O)c3ccccc3C2=O)C(=O)c2ccccc21`: the GI50 in the experiment with U251 CNS was 2.66 µM; in the experiment with DU-145 prostate, 1.68 µM; in the experiment with NCI-H522 lung it was 1.97 µM; with PC-3 prostate, 2.15 µM; with OVCAR-3 ovarian it was 1.71 µM; in the experiment with BT-549 breast, 2.5 µM. Besides, the TGI turned out to be 6.27 µM in the experiment with U251 CNS; 3.06 µM with DU-145 prostate; 4.98 µM in the experiment on NCI-H522 lung; 16.7 µM with PC-3 prostate; 5.71 µM with OVCAR-3 ovarian; 13.5 µM in the experiment with BT-549 breast.
